Source: patent US20050101640A1 (Recordati Ireland Limited, priority 2002, published 2005)
Marks after values point to notes of the source that are not given here.

Legend:
[1] = tested on: uninephrectomized anesthetized rats, renal ischemia/reperfusion hypertension; test: Model of acute angiotensin-mediated renal hypertension in anesthetized rats (Example VI, with HCTZ); assay type: in vivo, Sprague-Dawley rats; conditions: for DBP / HR / SBP: mean ± S.E.M.
Text: The animals were tracheotomized to facilitate spontaneous breathing.
Silk threads were placed around both vessels and ureter. The cavity was then covered with Vaseline oil.
Results are expressed as mean values ±S.E in the tables and as mean values ±S.E. and Δ±S.E. changes in the figures.

[2] = cited from earlier work
isolated rat aorta = conditions: in vitro; even after the drug has been removed for 6 hours; cited from earlier work
[3] = tested on: uninephrectomized anesthetized rats, renal ischemia/reperfusion hypertension; test: Model of acute angiotensin-mediated renal hypertension in anesthetized rats (Example I); conditions: for DBP mean change ± S.D: DBP decrease after 10 minutes from the start of drug administration, lercanidipine 10 μg/kg, lisinopril 30 μg/kg i.v. or both, Anova factorial model; for effect on systolic blood pressure and diastolic blood pressure compared to vehicle (and, for the combination, to either drug alone): lercanidipine 10 μg/kg i.v. or both; for DBP / HR / SBP: mean ± S.E.M.
Description: Male Sprague-Dawley rats, weighing 250-300 g, were anaesthetized with pentobarbital sodium (35 mg/kg, i.p.) and placed on a thermic blanket. The temperature was maintained at 37° C. with a thermoregulator via a rectal probe. The animals were tracheotomized to facilitate spontaneous breathing. A polyethylene catheter was placed in the left jugular vein to allow for infusion of pentobarbital sodium to maintain anesthesia. The left femoral vein and artery were cannulated with polyethylene catheters to allow drugs administration and to monitor blood pressure, respectively.
The animals then underwent a left nephrectomy by excising the left kidney via a flank incision. The right kidney and renal vein, artery and ureter then were exposed via a right retroperitoneal incision, under a dissecting microscope. Silk threads were positioned loosely around both vessels and ureter. The cavity was then covered with Vaseline oil.
After 30-60 minutes of basal recordings of arterial blood pressure and heart rate the threads around the renal vessels and ureter were tied close to the renal hilum to induce complete renal ischemia of the right kidney. After 2 hours of ischemia (designated as “120” in Tables 4-7), the threads were removed to allow renal reperfusion and urine output. […] To evaluate the effects of drugs administration on blood pressure and heart rate, two-way ANOVA and Dunnet's test was used.

[4] = time 0 min, basal, before ischemia and before drug
[5] = time 120 min, end of ischemia, before drug
[6] = time 125 min, 5 min after reperfusion, at drug administration (reference value)
[7] = time 130 min (5 min after i.v. drug), lisinopril+HCTZ 10+12 μg/kg, lercanidipine 7.5 μg/kg or all three
[8] = time 135 min (10 min after i.v. drug), lisinopril+HCTZ 10+12 μg/kg, lercanidipine 7.5 μg/kg or all three
[9] = time 150 min (25 min after i.v. drug), lisinopril+HCTZ 10+12 μg/kg, lercanidipine 7.5 μg/kg or all three
[10] = time 165 min (40 min after i.v. drug), lisinopril+HCTZ 10+12 μg/kg, lercanidipine 7.5 μg/kg or all three
[11] = time 180 min (55 min after i.v. drug), lisinopril+HCTZ 10+12 μg/kg, lercanidipine 7.5 μg/kg or all three
[12] = time 130 min (5 min after i.v. drug), lisinopril 30 μg/kg, lercanidipine 10 μg/kg or both
[13] = time 135 min (10 min after i.v. drug), lisinopril 30 μg/kg, lercanidipine 10 μg/kg or both
[14] = time 150 min (25 min after i.v. drug), lisinopril 30 μg/kg, lercanidipine 10 μg/kg or both
[15] = time 165 min (40 min after i.v. drug), lisinopril 30 μg/kg, lercanidipine 10 μg/kg or both
[16] = time 180 min (55 min after i.v. drug), lisinopril 30 μg/kg, lercanidipine 10 μg/kg or both

With `COC(=O)C1=C(C)NC(C)=C(C(=O)OC(C)(C)CN(C)CCC(c2ccccc2)c2ccccc2)C1c1cccc([N+](=O)[O-])c1` (centres unmarked) [lercanidipine, methyl 1,1,N-trimethyl-N-(3,3-diphenylpropyl)-2-aminoethyl 1,4-dihydro-2,6-dimethyl-4-(3-nitrophenyl)pyridine-3,5-dicarboxylate] the “effect on blood pressure (in words)” value ([1]; i.v. at peak of reperfusion hypertension, lisinopril+HCTZ 10+12 μg/kg, lercanidipine 7.5 μg/kg or all three) was “statistically significant decrease in diastolic blood pressure”, the “effect on heart rate (in words)” value ([1]; lisinopril+HCTZ 10+12 μg/kg, lercanidipine 7.5 μg/kg i.v. or all three) was “positive chronotropic effect” and the DBP [1, 4] was 82.7 ± 2.7 mmHg. It also gave an HR [1, 4] of 380.0 ± 17.2 beats/min, an SBP [1, 4] of 115.0 ± 3.1 mmHg and a DBP [1, 5] of 65.8 ± 4.6 mmHg. It also gave an HR [1, 5] of 376.0 ± 17.0 beats/min, an SBP [1, 5] of 103.8 ± 6.4 mmHg and a DBP [1, 6] of 107.0 ± 4.0 mmHg. It also gave an SBP [1, 6] of 138.0 ± 4.6 mmHg, a DBP [1, 7] of 87.0 ± 4.3 b mmHg and an HR [1, 7] of 434.0 ± 26.9 b beats/min. It also gave an SBP [1, 7] of 123.7 ± 3.2 mmHg, a DBP [1, 8] of 86.7 ± 5.0 b mmHg and an HR [1, 8] of 448.0 ± 14.4 b beats/min. It also gave an SBP [1, 8] of 121.7 ± 4.9 mmHg, a DBP [1, 9] of 86.0 ± 8.2 b mmHg and an HR [1, 9] of 444.0 ± 16.1 b beats/min. For the same molecule, the SBP [1, 9] was 121.0 ± 7.0 mmHg, the DBP [1, 10] was 78.0 ± 7.6 b mmHg and the HR [1, 10] was 442.0 ± 20.4 b beats/min. The SBP [1, 10] was 112.3 ± 6.1 b mmHg, the DBP [1, 11] was 66.3 ± 8.0 b mmHg and the HR [1, 11] was 434.0 ± 20.9 b beats/min. For the same molecule, the SBP [1, 11] was 99.8 ± 7.2 b mmHg, the elimination route ([2]; in vivo) was “essentially via the hepatic route” and the “time of peak plasma levels following dosing” value ([2]; unmodified release oral dosage form) was 2 to 3 h. The “isolated rat aorta response to high K+” value (isolated rat aorta) was “attenuated”, the “DBP mean change ± S.D” value [3] was 26.13 ± 8.68^a and the “effect on systolic blood pressure and diastolic blood pressure compared to vehicle (and, for the combination, to either drug alone)” value ([3]; lisinopril 30 μg/kg) was “significant decreases”. The DBP [3, 4] was 69.8 ± 2.5 mmHg, the HR [3, 4] was 359.6 ± 13.9 beats/min and the SBP [3, 4] was 110.4 ± 3.6 mmHg. For the same molecule, the DBP [3, 5] was 70.6 ± 5.4 mmHg, the HR [3, 5] was 359.3 ± 7.8 beats/min and the SBP [3, 5] was 114.5 ± 6.5 mmHg. For the same molecule, the DBP [3, 6] was 119.3 ± 5.2 mmHg, the HR [3, 6] was 383.6 ± 9.9 beats/min and the SBP [3, 6] was 167.6 ± 8.9 mmHg. The DBP [3, 12] was 97.1 ± 3.1^b mmHg, the HR [3, 12] was 433.1 ± 8.9^b beats/min and the SBP [3, 12] was 140.4 ± 3.8^b mmHg. For the same molecule, the DBP [3, 13] was 93.1 ± 4.0^b mmHg, the HR [3, 13] was 448.0 ± 6.2^b beats/min and the SBP [3, 13] was 140.5 ± 3.7^b mmHg. For the same molecule, the DBP [3, 14] was 89.5 ± 4.3^b mmHg, the HR [3, 14] was 443.6 ± 8.2^b beats/min and the SBP [3, 14] was 139.4 ± 3.7^b mmHg. For the same molecule, the DBP [3, 15] was 83.5 ± 4.6^b mmHg, the HR [3, 15] was 435.5 ± 11.2^b beats/min and the SBP [3, 15] was 132.0 ± 5.3^b mmHg. The DBP [3, 16] was 78.8 ± 4.0^b mmHg, the HR [3, 16] was 422.8 ± 12.0^b beats/min and the SBP [3, 16] was 128.1 ± 4.7^b mmHg.

In the case of `NCCCC[C@H](N[C@@H](CCc1ccccc1)C(=O)O)C(=O)N1CCC[C@H]1C(=O)O` [lisinopril], the “time of peak serum concentrations” value ([2]; following oral administration) is given as ≤ 7 h, the “DBP mean change ± S.D” value [3] is given as 26.83 ± 4.40^a and the “effect on systolic blood pressure and diastolic blood pressure compared to vehicle (and, for the combination, to either drug alone)” value ([3]; lisinopril 30 μg/kg) is given as “significant decreases”. The DBP [3, 4] was 73.3 ± 3.2 mmHg, the HR [3, 4] was 393.3 ± 8.8 beats/min and the SBP [3, 4] was 104.2 ± 3.0 mmHg. For the same molecule, the DBP [3, 5] was 68.3 ± 2.3 mmHg, the HR [3, 5] was 390.3 ± 10.0 beats/min and the SBP [3, 5] was 99.3 ± 2.4 mmHg. For the same molecule, the DBP [3, 6] was 117.3 ± 1.3 mmHg, the SBP [3, 6] was 154.3 ± 3.6 mmHg and the DBP [3, 12] was 92.5 ± 1.0^b mmHg. For the same molecule, the HR [3, 12] was 408.3 ± 12.3 beats/min, the SBP [3, 12] was 120.7 ± 1.7^b mmHg and the DBP [3, 13] was 90.5 ± 1.2^b mmHg. The HR [3, 13] was 405.8 ± 9.7 beats/min, the SBP [3, 13] was 119.0 ± 2.1^b mmHg and the DBP [3, 14] was 77.7 ± 4.1^b mmHg. For the same molecule, the HR [3, 14] was 406.7 ± 13.1 beats/min, the SBP [3, 14] was 111.0 ± 4.0^b mmHg and the DBP [3, 15] was 64.0 ± 4.8^b mmHg. For the same molecule, the HR [3, 15] was 406.7 ± 18.2 beats/min, the SBP [3, 15] was 96.0 ± 6.0^b mmHg and the DBP [3, 16] was 57.3 ± 5.1^b mmHg. The HR [3, 16] was 400.0 ± 14.6 beats/min and the SBP [3, 16] was 90.2 ± 6.8^b mmHg.
